Article PMC3871636 (PLoS ONE, 2013)
Structures can show the parent of a compound that is named as a salt.

Legend:
[1] = molecular target: wild type CYP3A4 (N-terminally truncated Δ3-12, S18F) (Homo sapiens, UniProt P08684, S18F); assay: Ligand-induced spin shift, absorbance titration
Experimental: (§1) All absorbance and fluorescence assays (including the time-resolved fluorescence measurements) were performed at a protein concentration ≤1 µM at 25°C with continuous stirring. Absorbance spectra were recorded with an S2000 rapid scanning CCD spectrometer (Ocean Optics). Ligand binding assays were done in 100 mM Na-Hepes buffer, pH 7.4, containing 0.5 mM EDTA.
(§2) Absorbance spectra obtained in titration experiments were analyzed with a principal component analysis (PCA) procedure complemented with least-square approximation of the principal vectors with a combination of the prototypical spectra of the CYP3A4 low-spin, high-spin and Type II-substrate-bound ferric CYP3A4 P450 states as described, [31].
(§3) When fitting the results of titration experiments, where the changes in the monitored signal A S (fraction of the enzyme in the high-spin state, intensity or the lifetime of the donor phosphorescence at a given substrate concentration) were assumed to be proportional to [ES], this equation was complemented with the offset A 0 and the scaling factor A max to yield the following relationship: [drawing 5] (Eq.5)

CYP3A4(C64/C121) mutant = CYP3A4(C64/C121) mutant (Homo sapiens, UniProt P08684, A121C/C239S/C377S/C468A/C98S/S18F); assay: Ligand-induced spin shift, absorbance titration
Chain of CYP3A4(C64/C121) mutant (P08684 with tags, fused parts or gaps S18F/C98S/A121C/C239S/C377S/C468A limits assumed): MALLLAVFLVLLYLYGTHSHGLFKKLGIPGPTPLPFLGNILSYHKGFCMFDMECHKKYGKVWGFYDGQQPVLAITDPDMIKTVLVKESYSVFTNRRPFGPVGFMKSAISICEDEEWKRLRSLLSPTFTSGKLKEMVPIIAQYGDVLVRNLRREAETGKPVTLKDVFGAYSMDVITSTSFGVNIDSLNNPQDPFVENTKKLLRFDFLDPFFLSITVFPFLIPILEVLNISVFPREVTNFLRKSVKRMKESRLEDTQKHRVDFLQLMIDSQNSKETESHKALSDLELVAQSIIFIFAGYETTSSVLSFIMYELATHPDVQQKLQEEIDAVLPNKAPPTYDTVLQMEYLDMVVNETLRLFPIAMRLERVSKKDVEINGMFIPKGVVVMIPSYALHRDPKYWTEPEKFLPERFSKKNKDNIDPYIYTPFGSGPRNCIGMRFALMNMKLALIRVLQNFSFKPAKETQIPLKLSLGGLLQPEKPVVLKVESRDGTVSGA
Experimental: as §1, §2, §3

CYP3A4(C64/C468) mutant = CYP3A4(C64/C468) mutant (Homo sapiens, UniProt P08684, S18F, form not given); assay: Ligand-induced spin shift, absorbance titration; format: binding; conditions: C64/C468
Chain of CYP3A4(C64/C468) mutant (P08684 13-503 S18F, form open): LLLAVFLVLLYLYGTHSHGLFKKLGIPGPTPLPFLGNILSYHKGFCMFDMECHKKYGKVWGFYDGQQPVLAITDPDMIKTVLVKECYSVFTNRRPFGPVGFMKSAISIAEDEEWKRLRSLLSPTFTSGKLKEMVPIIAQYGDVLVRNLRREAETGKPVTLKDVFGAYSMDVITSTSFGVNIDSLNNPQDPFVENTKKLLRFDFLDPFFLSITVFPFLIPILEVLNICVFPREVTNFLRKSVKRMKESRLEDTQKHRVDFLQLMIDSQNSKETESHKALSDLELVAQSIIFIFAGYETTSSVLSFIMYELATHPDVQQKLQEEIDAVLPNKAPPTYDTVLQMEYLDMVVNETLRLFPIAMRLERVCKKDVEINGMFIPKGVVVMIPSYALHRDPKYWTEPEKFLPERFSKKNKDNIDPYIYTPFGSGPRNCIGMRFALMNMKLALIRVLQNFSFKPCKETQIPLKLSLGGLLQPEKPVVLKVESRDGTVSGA
Experimental: as §1, §2, §3

CYP3A4(C377/C468) mutant = CYP3A4(C377/C468) mutant (Homo sapiens, UniProt P08684, S18F, form not given); assay: Ligand-induced spin shift, absorbance titration; format: binding; conditions: C377/C468
Chain of CYP3A4(C377/C468) mutant (P08684 13-503 S18F, form open): as above
Experimental: as §1, §2, §3

[2] = molecular target: CYP3A4 (double-labeled C64/C468-ER/DY) (Homo sapiens, UniProt P08684, form not given/S18F); assay: Ligand-induced spin shift, absorbance titration; format: binding; conditions: human, purified double-labeled CYP3A4 C64/C468-ER/DY protein, pH 7.4; read-out: K D or S 50
Chain of CYP3A4 (double-labeled C64/C468-ER/DY) (P08684 13-503 S18F, form open): as above
Experimental: as §1, §2, §3

[3] = molecular target: double-labeled CYP3A4 C64/C468-ER/DY (Homo sapiens, UniProt P08684, S18F, form not given); assay: Ligand-induced spin shift, absorbance titration; format: binding; conditions: (C64/C468)-ER/DY
Chain of double-labeled CYP3A4 C64/C468-ER/DY (P08684 13-503 S18F, form open): as above
Experimental: as §1, §2, §3

[4] = molecular target: double-labeled CYP3A4 (C64/C468)-DY/ER (Homo sapiens, UniProt P08684, S18F, form not given); assay: Time-resolved LRET (phosphorescence lifetime measurements); conditions: for ΔELT (change in LRET efficiency), lifetime measurements / ΔR (change in interprobe distance), lifetime measurements / τ1 (phosphorescence decay time with ligand) / F1 (fraction of first exponential) / τ2 (phosphorescence decay time with ligand) / τav (average phosphorescence lifetime with ligand): (C64/C468)-DY/ER; for ΔELT (change in LRET efficiency), lifetime measurements / ΔR (change in interprobe distance), lifetime measurements: nearly-saturating ligand: ANF 100 µM, bromocriptine 2.5 µM, cholesterol 50 µM; for ΔELT (change in LRET efficiency), lifetime measurements / ΔR (change in interprobe distance), lifetime measurements / τ1 (phosphorescence decay time with ligand) / E (LRET efficiency with ligand), lifetime measurements: testosterone 100 µM; for τ1 (phosphorescence decay time with ligand) / F1 (fraction of first exponential) / τ2 (phosphorescence decay time with ligand) / τav (average phosphorescence lifetime with ligand): Table S1; for τ1 (phosphorescence decay time with ligand) / E (LRET efficiency with ligand), lifetime measurements: 1-PB 40 µM, ANF 100 µM, BCT 2.5 µM, cholesterol 100 µM; for τ1 (phosphorescence decay time with ligand): bi-exponential fit; for F1 (fraction of first exponential) / τ2 (phosphorescence decay time with ligand) / τav (average phosphorescence lifetime with ligand) / R (interprobe distance with ligand), lifetime measurements / ΔR, lifetime measurements: same ligand concentrations; for E (LRET efficiency with ligand), lifetime measurements / R (interprobe distance with ligand), lifetime measurements / ΔR, lifetime measurements: Table S2, C64/C468-DY/ER; on ΔR (change in interprobe distance), lifetime measurements: values in Å
Chain of double-labeled CYP3A4 (C64/C468)-DY/ER (P08684 13-503 S18F, form open): as above
Text: (§4) The excitation wavelength was set to 540 nm.

[5] = molecular target: double-labeled CYP3A4 C377/C468-DY/ER (Homo sapiens, UniProt P08684, S18F, form not given); assay: as above; conditions: for τ1 (phosphorescence decay time with ligand) / F1 (fraction of first exponential) / τ2 (phosphorescence decay time with ligand) / τav (average phosphorescence lifetime with ligand): Table S1, protein (C377/C468)-ER/DY; for τ1 (phosphorescence decay time with ligand) / E (LRET efficiency with ligand), lifetime measurements: 1-PB 40 µM, ANF 100 µM, BCT 2.5 µM, cholesterol 100 µM, testosterone 100 µM; for τ1 (phosphorescence decay time with ligand): bi-exponential fit; for F1 (fraction of first exponential) / τ2 (phosphorescence decay time with ligand) / τav (average phosphorescence lifetime with ligand) / R (interprobe distance with ligand), lifetime measurements / ΔR, lifetime measurements: same ligand concentrations; for E (LRET efficiency with ligand), lifetime measurements / R (interprobe distance with ligand), lifetime measurements / ΔR, lifetime measurements: Table S2, protein C377/C468-ER/DY
Chain of double-labeled CYP3A4 C377/C468-DY/ER (P08684 13-503 S18F, form open): as above
Text: as §4

[6] = molecular target: CYP3A4 (double-labeled (C64/C468)-ER/DY) (Homo sapiens, UniProt P08684, form not given/S18F); assay: Steady-state LRET titration (delayed emission); format: binding; conditions: human, purified double-labeled CYP3A4 (C64/C468)-ER/DY protein, pH 7.4; (C64/C468)-ER/DY; LRET titration; read-out: K d, steady-state fluorescence
Chain of CYP3A4 (double-labeled (C64/C468)-ER/DY) (P08684 13-503 S18F, form open): as above
Experimental: as §1
Fluorescence-based ligand binding assays were done under anaerobic conditions. Anaerobiosis was achieved using an oxygen-scavenging system consisting of protecatechuate-3,4-dioxygenase (0.5 units/ml) and 5 mM protocatechuic acid. The steady state and time-resolved phosphorescence measurements were performed with the use of a Cary Eclipse fluorescence spectrophotometer (Varian/Agilent Technologies). The excitation wavelength was set to 540 nm. Spectra were taken from 650 to 860 nm with 100 µs delay.
Quantitative interpretation of LRET results was also based on the use of PCA applied to a series of emission spectra normalized on integral intensity. […] Intensity of the donor and acceptor fluorescence obtained in this way were used in determination of the efficiency of steady-state LRET using the equation [drawing 1] (Eq.1) where I ad is emission intensity of the acceptor, I da is the residual donor emission in the presence of acceptor (I da), Φ a and Φ d are the quantum yield of the fluorescence of acceptor and the quantum yield of the phosphorescence of donor, respectively.
Distances were calculated using the equation: [drawing 3] (Eq.3) where R 0 is the Förster distance, and R is the distance between the donor and acceptor. R 0 was calculated with the use of PhotoChemCad software. In these calculations, we used the values of the orientation factor (κ^2) and the refractive index (n) of 0.667 and 1.4, respectively.
as §3

[7] = molecular target: CYP3A4 (double-labeled C64/C468-DY/ER) (Homo sapiens, UniProt P08684, form not given/S18F); assay: Ligand-induced spin shift, absorbance titration; format: binding; conditions: human, purified double-labeled CYP3A4 C64/C468-DY/ER protein, pH 7.4; read-out: K D or S 50
Chain of CYP3A4 (double-labeled C64/C468-DY/ER) (P08684 13-503 S18F, form open): as above
Experimental: as §1, §2, §3

[8] = molecular target: double-labeled CYP3A4 C64/C468-DY/ER (Homo sapiens, UniProt P08684, S18F, form not given); assay: Ligand-induced spin shift, absorbance titration; format: binding; conditions: (C64/C468)-DY/ER
Chain of double-labeled CYP3A4 C64/C468-DY/ER (P08684 13-503 S18F, form open): as above
Experimental: as §1, §2, §3

[9] = molecular target: CYP3A4 (double-labeled C377/C468-DY/ER) (Homo sapiens, UniProt P08684, form not given/S18F); assay: Ligand-induced spin shift, absorbance titration; format: binding; conditions: purified double-labeled CYP3A4 C377/C468-DY/ER protein, pH 7.4, read-out: K D or S 50
Chain of CYP3A4 (double-labeled C377/C468-DY/ER) (P08684 13-503 S18F, form open): as above
Experimental: as §1, §2, §3

Chain of wild type CYP3A4 (N-terminally truncated Δ3-12, S18F) (P08684 with tags, fused parts or gaps S18F): as the sequence (P08684 with tags, fused parts or gaps S18F/C98S/A121C/C239S/C377S/C468A limits assumed) above, with S88C, C111A, S229C, S367C, A458C counted along it

| SMILES | Kd [1] | Kd (CYP3A4(C64/C121) mutant) | Nh (Hill coefficient) (CYP3A4(C64/C468) mutant) | ΔF HS (amplitude of ligand-induced spin shift) (CYP3A4(C64/C468) mutant) | Nh (Hill coefficient) (CYP3A4(C377/C468) mutant) | ΔF HS (amplitude of ligand-induced spin shift) (CYP3A4(C377/C468) mutant) | Kd [2] | ΔR (change in interprobe distance), lifetime measurements [4] | τ1 (phosphorescence decay time with ligand) [4] | F1 (fraction of first exponential) [4] | τ2 (phosphorescence decay time with ligand) [4] | τav (average phosphorescence lifetime with ligand) [4] | R (interprobe distance with ligand), lifetime measurements [4] | ΔR, lifetime measurements [4] | τ1 (phosphorescence decay time with ligand) [5] | F1 (fraction of first exponential) [5] | τ2 (phosphorescence decay time with ligand) [5] | τav (average phosphorescence lifetime with ligand) [5] | R (interprobe distance with ligand), lifetime measurements [5] | ΔR, lifetime measurements [5] | other results |
| --- | --- | --- | --- | --- | --- | --- | --- | --- | --- | --- | --- | --- | --- | --- | --- | --- | --- | --- | --- | --- | --- |
| OCCCCc1ccc2ccc3cccc4ccc1c2c34 [1-PB, 1-pyrenebutanol] | 9.5 ± 0.9 µM | 16 ± 8 µM | 1.2±0.1 | 43±5% | 1.2±0.2 | 29±9% | 5.4 ± 2.1 µM | −0.9±0.1 Å | 53 ± 1 µs | 46 ± 3% | 195 ± 7 µs | 129 ± 1 µs | 35.8 ± 0.1 Å | -0.9 ± 0.1 Å | 45 ± 5 µs | 30 ± 3% | 149 ± 5 µs | 118 ± 2 µs | 38.3 ± 0.3 Å | 1.6 ± 0.3 Å | Nh (Hill coefficient) ([1]; W/T): 1.6±0.4; ΔF HS (amplitude of ligand-induced spin shift) ([1]; W/T): 50±1%; Nh (Hill coefficient) (CYP3A4(C64/C121) mutant; C64/C121): 1.3±0.5; ΔF HS (amplitude of ligand-induced spin shift) (CYP3A4(C64/C121) mutant; C64/C121): 17±10%; Nh (Hill coefficient) [3]: 1.3±0.1; ΔF HS (amplitude of ligand-induced spin shift) [3]: 18±2%; ΔELT (change in LRET efficiency), lifetime measurements [4]: +3.8±1%; E (LRET efficiency with ligand), lifetime measurements [4]: 45 ± 1%; E (LRET efficiency with ligand), lifetime measurements [5]: 35 ± 1% |
| O=c1cc(-c2ccccc2)oc2c1ccc1ccccc12 [ANF, α-naphthoflavone] | 7.4 ± 1.6 µM | 8.6 ± 1.6 µM | 1.8±0.2 | 39±8% | 1.4±0.2 | 24±12% |  | 1.8±0.7 Å | 54 ± 1 µs | 45 ± 5% | 231 ± 15 µs | 154 ± 4 µs | 38.6 ± 0.5 Å | 1.8 ± 0.5 Å | 42 ± 10 µs | 28 ± 5% | 188 ± 18 µs | 147 ± 8 µs | 43.9 ± 2.3 Å | 7.1 ± 2.3 Å | Nh (Hill coefficient) ([1]; human, pH 7.4): 1.9±0.3; ΔF HS (amplitude of ligand-induced spin shift) ([1]; human, pH 7.4): 41±1%; Nh (Hill coefficient) (CYP3A4(C64/C121) mutant; human, pH 7.4): 1.3±0.4; ΔF HS (amplitude of ligand-induced spin shift) (CYP3A4(C64/C121) mutant; human, pH 7.4): 19±4%; Kd [6]: 17.3 ± 7.2 µM; Kd [7]: 4.2 ± 0.9 µM; Nh (Hill coefficient) [8]: 1.5±0.1; ΔF HS (amplitude of ligand-induced spin shift) [8]: 13±1%; ΔELT (change in LRET efficiency), lifetime measurements [4]: −6.8±3%; E (LRET efficiency with ligand), lifetime measurements [4]: 34 ± 2%; E (LRET efficiency with ligand), lifetime measurements [5]: 19 ± 4% |
| CC(C)C[C@H]1C(=O)N2CCC[C@H]2[C@]2(O)O[C@](NC(=O)[C@@H]3C=C4c5cccc6[nH]c(Br)c(c56)C[C@H]4N(C)C3)(C(C)C)C(=O)N12 [Bromocriptine, Bromocriptine mesylate] |  |  |  |  |  |  | 0.28 ± 0.1 µM | 0.3±1.0 Å | 55 ± 9 µs | 44 ± 5% | 209 ± 20 µs | 141 ± 7 µs | 37.1 ± 0.8 Å | 0.3 ± 0.8 Å | 25 ± 9 µs | 20 ± 4% | 129 ± 6 µs | 108 ± 3 µs | 36.8± 0.4 Å | 0.0 ± 0.4 Å | Kd [9]: 0.93 ± 0.6 µM |
